From patent publication US20220378794A1 (Sinopia Biosciences, Inc., priority 2019, published 2022)

System: chronic low-dose MPTP lesioned non-human primate model of cognitive impairment
Details: levodopa 5-20 mg/kg (groups 6-8); in particular shorter delay periods DP1 and DP2; vs vehicle

## N[C@@H](Cc1ccc(O)c(O)c1)C(=O)O [levodopa]
  accuracy of VDR test: trend toward completing the VDR test with lower accuracy
